Consider 1 compound from patent publication US12161632B2, “Compositions and methods of treating cardiac fibrosis with ifetroban” (Cumberland Pharmaceuticals Inc., priority 2014, dated 2024).

In assay [1] the test system is pulmonary artery banding (PAB) mouse model of pulmonary hypertension. Put plainly: Pulmonary artery banding (PAB) model: cardiovascular phenotyping and histology (Example V). It counts as in vivo, mice. To be noted: 14 days. How it is done: Experimental Methods: In this pulmonary artery banding (PAB) animal model, we used wildtype or Rosa26-rtTA2 mice on a normal diet. Mice were anesthetized and subject to either PAB (20 mice) or sham surgery (10 mice) at 4-6 months of age. Following the procedure, the mice were given either ifetroban water at 30 mg/kg/day or normal drinking water, and after 14 days of treatment we performed cardiovascular phenotyping followed by terminal sacrifice, histology and gene expression arrays.
Echocardiograms to assess cardiac output were obtained the day prior to catheterization and sacrifice. Our standard cardiovascular phenotyping continued with systemic pressure measurement by tail vein cuff, and intrajugular heart catheterization with measurement of right ventricular systolic pressure (RVSP) for peak pressure, diastolic pressure, diastolic time constant, arterial elastance, ejection fraction, and stroke volume.
(§1) Following sacrifice, right ventricular hypertrophy was assessed in each animal as a percentage of heart weight. A random fraction of the right hearts were fixed in formalin for histology and examined for indices of fibrosis; other hearts were snap frozen for gene expression analysis via RNA microarray. Right hearts and lungs were collected for analysis of protein expression and gene expression array. Left lungs were fixed and stained. Platelet deposition was examined in small pulmonary artery vessels. The remaining organs were harvested and frozen in liquid nitrogen for potential gene expression analysis.

The subject of assay [2] is right ventricle under load stress (pulmonary banding). Kind of assay: Pulmonary banding load stress model: hemodynamics, heart fibrosis and macrophage infiltration (Example IV). Conditions: banded mice, 25 mg/kg/day in drinking water, 2 weeks. It counts as in vivo. How it is done:
FVB/N mice or mice with a GFP macrophage-specific lineage tracing marker (LysM-Cre) underwent pulmonary banding to directly increase load stress (or sham surgery for controls), and starting the following day received either vehicle or the thromboxane receptor antagonist Ifetroban sodium in their drinking water (25 mg/kg/day). After 2 weeks, noninvasive hemodynamics were obtained by transthoracic echocardiography and invasive hemodynamics were obtained by pressure-volume catheterization of the right heart prior to sacrifice. Hearts were assessed for fibrosis and macrophage infiltration. RNA from right ventricles were isolated and used for unbiased discovery of altered gene expression using Affymetrix Mouse Gene 2.0 arrays performed on four groups (banded or sham). LysM-Cre mouse hearts were flash-frozen whole, cross-sectioned, and assessed by microscopy for fibrosis and macrophage infiltration. Differences between groups were assessed by ANOVA and t-tests. Correlations were assessed by Spearman correlation.

In assay [3] the test system is RV monocytes / macrophages. Kind of assay: Cardiac monocytes: LysM-Cre lineage tracing and flow cytometry of RV (Example VII). Format: in vivo, mice. The protocol:
Both male and female age-matched C57Bl/6 or FVB/NJ mice, obtained by in-house breeding, were used for pulmonary artery banding. LysM-GFP mice were obtained by cross-breeding LysM-Cre×mTomato/GFP reporter mice B6.129P2-Lyz2tm1(cre)Ifo/J (a gift from Tim Blackwell)×Gt(ROSA)26Sortm4(ACTB-tdTomato, -EGFP)Luo (JAX stock #007676). The day following surgery, mice were given either 25 mg/kg/day IFETROBAN (Cumberland Pharmaceuticals Inc., Nashville, TN) in drinking water or normal drinking water (vehicle) for 2 weeks or 6 weeks prior to hemodynamic evaluation. Mice were weighed and water was changed once a week.
TP receptors are also expressed on monocytes, and blockade of these receptors may have immune-specific effects. To determine whether the decrease in fibrosis seen with TP receptor inhibition was due to decreased macrophage infiltration or proliferation in the RV, PAB on LysM-Cre mice expressing eGFP under the LysozymeM promoter was performed, where all cells that have ever had monocyte lineage are labeled with GFP, even if they have later differentiated. […] Transgenic LysM-Cre×flox-mTomato-flox eGFP mice were used to label cells of monocyte derivation in the RV. These mice express a fluorescent red, except in cells derived from monocyte lineage (even if they have later differentiated), which express a fluorescent green. […] Flow sorting of whole RV for circulating markers found a non-significant trend towards an increase in PA-banded mice that was blocked by ifetroban.

In assay [4] the test system is RV gene expression. Put plainly: RV RNA expression arrays in PAB/sham mice (Example V). It counts as in vivo. Conditions: 30 mg/kg/day, 14 days. How it is done:
as §1
As part of this study, RNA extracted and expression analysis was performed using Mouse Genone 2.0 Affymetrix expression arrays. (FIG. 4C). The Array design was 2×2×2: Sham/Banded×Vehicle/Ifetroban×M/F. In total, there were 8 arrays; each array was a pool of RV from 3 mice. Only mice with an RVSP>30 were used for the banded groups. Banding itself altered 199 genes (ABS (Diff in averages)—Sum of standard deviations)>0.4 comparing vehicle banded to sham, and expression of 49 of those genes was enhanced by ifetroban (difference >0.4) and expression of 29 of those genes was attenuated by ifetroban (difference >0.4). […] Res., 2011 Jul. […] 15; 45(4):511-8.

With `CCCCCNC(=O)c1coc([C@H]2[C@@H](Cc3ccccc3CCC(=O)O)[C@@H]3CC[C@H]2O3)n1` [ifetroban, [1S-(1α,2α,3α,4α)]-2-[[3-[4-[(Pentylamino)carbonyl]-2-oxazolyl]-7-oxabicyclo[2.2.1]hept-2-yl]methyl]-benzenepropanoic acid], in assay [1] (30 mg/kg/day), the “fibrosis in banded right ventricles” value is “decreases fibrosis in banded right ventricles”. Also, the “right ventricular systolic pressure (RVSP)” value in assay [1] (PAB mice, 30 mg/kg/day in water) is reported as “did not have an effect”. In addition, in assay [1] (banded mice, 30 mg/kg/day, p<0.05 unpaired t test), the “ratio of tricuspid E to A wave” value is reported as “significantly increased”. In assay [1] (sham surgery and banded, 30 mg/kg/day), the “fibrosis in cross-section of the right ventricle (trichrome-stained, 20×)” value is “reduced fibrosis in the right ventricle for both the sham surgery and the banded right ventricle”. For the same compound, in assay [2], the “fibrosis (heart)” value is “reduction in fibrosis”, the “hemodynamic markers of right heart function under load stress” value is reported as “preserved right heart function under load stress” and the “recruitment of inflammatory cells” value is “reduction in recruitment of inflammatory cells”. Besides, the “PAB-induced increase in green (monocyte lineage) cells in RV” value in assay [3] (LysM-Cre reporter mice, ifetroban) was “not in ifetroban-treated mice”. Besides, the “flow sorting of whole RV for circulating markers: non-significant trend towards an increase in PA-banded mice” value in assay [3] (wildtype mice, PAB) is reported as “blocked”. In addition, in assay [4] (banded RV pools), the “number of the 199 banding-altered genes whose expression was attenuated (difference >0.4)” value stood at 29 genes and the “number of the 199 banding-altered genes whose expression was enhanced (difference >0.4)” value is recorded as 49 genes. Further, in assay [4] (banded RV), the “expression of FBX032” value is “reduces the expression of FBX032”; the “expression of Nmrk2, Meox1, Nkd2, and Pkhd1” value is “enhances the expression of other genes”; the “expression of PDGF” value is listed as “reduces the expression of PDGF”; the “expression of genes involved with inhibition of TGF-Beta, Asporin and Ltbp2” value is “enhanced the expression”. In assay [4] (banded RV), the “expression of genes related to collagen and cell-cell adhesion, particularly thrombospondin-4 (Thbs4)” value is “enhances the expression”. In addition, in assay [4] (banded mice), the “expression of pro-fibrotic and inflammatory genes” value is reported as “decreases expression”; the “expression of pro-muscularization genes” value was “increases expression”.
